In PubChem BioAssay AID330 (DTP/NCI, 2004):
Values joined by “and” are separate entries in the source; they are usually repeats but may differ in a detail not shown here. Equal entries are not always repeated. Toxic doses and inconclusive results are not listed.

Tested on: P388 leukemia ip, CD2F1 mice, survival T/C
Assay: NCI In Vivo Anticancer Drug Screen. Data for tumor model P388 Leukemia (intraperitoneal) in CD2F1 (CDF1) mice
Settings: endpoint: median survival time, higher = longer survival
Summary of the method: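 Mice carrying the transplanted tumor received test compound or vehicle. Survival was recorded in each group, and the value is the treated-group measurement divided by that of the vehicle-treated control group.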

[1] = dose: 100.0 mg/kg/injection, schedule: Q01DX005 (ip), vehicle: saline with Tween-80
[2] = dose: 25.0 mg/kg/injection, schedule: Q01DX009 (ip), vehicle: saline
[3] = dose: 50.0 mg/kg/injection, schedule: Q01DX009 (ip), vehicle: saline

c1ccc2c(c1)Nc1ccc3ccccc3c1S2
T/C (dose: 25.0 mg/kg/injection, schedule: Q01DX009 (ip), vehicle: saline with Tween-80): 98 % of control | T/C (dose: 50.0 mg/kg/injection, schedule: Q01DX009 (ip), vehicle: saline with Tween-80): 105 % of control | T/C (dose: 100.0 mg/kg/injection, schedule: Q01DX009 (ip), vehicle: saline with Tween-80): 96 % of control | T/C (dose: 200.0 mg/kg/injection, schedule: Q01DX009 (ip), vehicle: saline with Tween-80): 108 % of control

Nc1cccc2c1-c1ccccc1C2=O
T/C (dose: 6.25 mg/kg/injection, schedule: Q01DX005 (ip), vehicle: saline with Tween-80): 98 % of control | T/C (dose: 12.5 mg/kg/injection, schedule: Q01DX005 (ip), vehicle: saline with Tween-80): 98 % of control | T/C (dose: 25.0 mg/kg/injection, schedule: Q01DX005 (ip), vehicle: saline with Tween-80): 92 % of control | T/C [1]: 92 % of control

CSc1nc2c(=S)[nH]cnc2s1
T/C (dose: 100.0 mg/kg/injection, schedule: Q04DX002 (ip), vehicle: saline with Tween-80): 95 % of control | T/C (dose: 200.0 mg/kg/injection, schedule: Q04DX002 (ip), vehicle: saline with Tween-80): 92 % of control | T/C (dose: 400.0 mg/kg/injection, schedule: Q04DX002 (ip), vehicle: saline with Tween-80): 92 % of control

COc1cc(N(CCCl)CCCl)c(OC)cc1C=Nc1cccc(Br)c1
T/C (dose: 6.25 mg/kg/injection, schedule: Q01DX009 (ip), vehicle: saline): 113 % of control | T/C (dose: 12.5 mg/kg/injection, schedule: Q01DX009 (ip), vehicle: suspension in saline): 116 % of control | T/C [2]: 167 % of control | T/C (dose: 25.0 mg/kg/injection, schedule: Q01DX009 (ip), vehicle: suspension in saline): 124 % of control | T/C [3]: 254 % of control | T/C (dose: 50.0 mg/kg/injection, schedule: Q01DX009 (ip), vehicle: suspension in saline): 150 % of control

CC1(C)CC1(Cl)S(C)(=O)=O (stereo unspecified)
T/C (dose: 100.0 mg/kg/injection, schedule: Q01DX001 (ip), vehicle: saline with Tween-80): 106 % of control | T/C (dose: 200.0 mg/kg/injection, schedule: Q01DX001 (ip), vehicle: saline with Tween-80): 105 % of control | T/C (dose: 400.0 mg/kg/injection, schedule: Q01DX001 (ip), vehicle: saline with Tween-80): 100 % of control

CCc1ccc2c(c1)C(=O)c1c(c(-c3ccccc3)c3ccccc3c1-c1ccccc1)C2=O
T/C (dose: 1.5 mg/kg/injection, schedule: Q01DX005 (ip), vehicle: saline with Tween-80): 98 % of control | T/C (dose: 3.0 mg/kg/injection, schedule: Q01DX005 (ip), vehicle: saline with Tween-80): 95 % of control | T/C (dose: 6.0 mg/kg/injection, schedule: Q01DX005 (ip), vehicle: saline with Tween-80): 90 % of control | T/C [1]: 92 % of control | T/C (dose: 200.0 mg/kg/injection, schedule: Q01DX005 (ip), vehicle: saline with Tween-80): 92 % of control

CCN(CC)CCCNc1cccc2c(C)cc(OC)nc12
T/C (dose: 12.5 mg/kg/injection, schedule: Q01DX009 (ip), vehicle: saline): 92 % of control | T/C [2]: 90 % of control | T/C [3]: 86 % of control

CCCCCCCCCCCCCCCCCC(=O)OCCN(C=O)C[n+]1ccccc1
T/C (dose: 100.0 mg/kg/injection, schedule: Q04DX002 (ip), vehicle: saline): 93 % of control | T/C (dose: 200.0 mg/kg/injection, schedule: Q04DX002 (ip), vehicle: saline): 120 % of control

CC1NNC(=S)NN1
T/C (dose: 15.0 mg/kg/injection, schedule: Q01DX005 (ip), vehicle: saline with Tween-80): 101 % of control | T/C (dose: 30.0 mg/kg/injection, schedule: Q01DX005 (ip), vehicle: saline with Tween-80): 101 % of control

Cc1nn(-c2nc(-c3ccccc3)cs2)c(C)c1C
T/C (dose: 50.0 mg/kg/injection, schedule: Q01DX009 (ip), vehicle: Klucel (hydroxypropylcellulose) (HPC)): 98 % of control | T/C (dose: 100.0 mg/kg/injection, schedule: Q01DX009 (ip), vehicle: Klucel (hydroxypropylcellulose) (HPC)): 96 % of control | T/C (dose: 200.0 mg/kg/injection, schedule: Q01DX009 (ip), vehicle: Klucel (hydroxypropylcellulose) (HPC)): 101 % of control

C[CH2][Hg][S]c1nsc([S][Hg][CH2]C)n1
T/C (dose: 3.13 mg/kg/injection, schedule: Q01DX009 (ip), vehicle: Klucel (hydroxypropylcellulose) (HPC)): 94 % of control | T/C (dose: 6.25 mg/kg/injection, schedule: Q01DX009 (ip), vehicle: Klucel (hydroxypropylcellulose) (HPC)): 118 % of control and 95 % of control | T/C (dose: 12.5 mg/kg/injection, schedule: Q01DX009 (ip), vehicle: Klucel (hydroxypropylcellulose) (HPC)): 98 % of control and 115 % of control

N#CC1=C(O)/C(=C\C=C\c2ccccc2)N(C(=O)c2ccccc2)C1=N
T/C (dose: 60.0 mg/kg/injection, schedule: Q01DX005 (ip), vehicle: saline with Tween-80): 105 % of control | T/C (dose: 120.0 mg/kg/injection, schedule: Q01DX005 (ip), vehicle: saline with Tween-80): 100 % of control | T/C (dose: 240.0 mg/kg/injection, schedule: Q01DX005 (ip), vehicle: saline with Tween-80): 104 % of control
